Assay results reported in PMC11172862, “Mechanistic and Structural Insights on Difluoromethyl-1,3,4-oxadiazole Inhibitors of HDAC6” (International Journal of Molecular Sciences, 2024).
Like-named read-outs stand apart in the source and are kept apart here.

Experiments:
[1] = target: T1, second catalytic domain of zebrafish HDAC6 (zHDAC6-CD2) (Danio rerio, UniProt F8W4B7); set-up: method as in PMID 36528061; conditions: included for comparison; ref [22]; read-out: HDACs IC50, zHDAC6-CD2; cited from earlier work
T1 construct: 8xHis-MBP (TEV-cleavable) (N, cleaved yes); made in house; host or cells: E. coli
T1 sequence (F8W4B7 440-798): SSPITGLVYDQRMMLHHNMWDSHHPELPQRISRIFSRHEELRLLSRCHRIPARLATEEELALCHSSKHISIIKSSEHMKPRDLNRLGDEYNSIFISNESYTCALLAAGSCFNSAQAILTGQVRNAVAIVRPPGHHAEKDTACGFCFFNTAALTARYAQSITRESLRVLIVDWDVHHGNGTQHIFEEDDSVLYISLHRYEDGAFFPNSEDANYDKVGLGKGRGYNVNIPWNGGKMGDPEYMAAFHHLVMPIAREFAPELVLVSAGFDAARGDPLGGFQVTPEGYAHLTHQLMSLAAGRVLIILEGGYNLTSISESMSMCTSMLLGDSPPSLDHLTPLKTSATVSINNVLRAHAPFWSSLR

human HDAC6 [2] = target: T2, human HDAC6 (Homo sapiens, UniProt Q9UBN7); set-up: method as in PMID 36528061; conditions: included for comparison; ref [22]; read-out: HDACs IC50, HDAC6; cited from earlier work
T2 construct: purchased BPS Bioscience 50006
T2 sequence (Q9UBN7 1-1215): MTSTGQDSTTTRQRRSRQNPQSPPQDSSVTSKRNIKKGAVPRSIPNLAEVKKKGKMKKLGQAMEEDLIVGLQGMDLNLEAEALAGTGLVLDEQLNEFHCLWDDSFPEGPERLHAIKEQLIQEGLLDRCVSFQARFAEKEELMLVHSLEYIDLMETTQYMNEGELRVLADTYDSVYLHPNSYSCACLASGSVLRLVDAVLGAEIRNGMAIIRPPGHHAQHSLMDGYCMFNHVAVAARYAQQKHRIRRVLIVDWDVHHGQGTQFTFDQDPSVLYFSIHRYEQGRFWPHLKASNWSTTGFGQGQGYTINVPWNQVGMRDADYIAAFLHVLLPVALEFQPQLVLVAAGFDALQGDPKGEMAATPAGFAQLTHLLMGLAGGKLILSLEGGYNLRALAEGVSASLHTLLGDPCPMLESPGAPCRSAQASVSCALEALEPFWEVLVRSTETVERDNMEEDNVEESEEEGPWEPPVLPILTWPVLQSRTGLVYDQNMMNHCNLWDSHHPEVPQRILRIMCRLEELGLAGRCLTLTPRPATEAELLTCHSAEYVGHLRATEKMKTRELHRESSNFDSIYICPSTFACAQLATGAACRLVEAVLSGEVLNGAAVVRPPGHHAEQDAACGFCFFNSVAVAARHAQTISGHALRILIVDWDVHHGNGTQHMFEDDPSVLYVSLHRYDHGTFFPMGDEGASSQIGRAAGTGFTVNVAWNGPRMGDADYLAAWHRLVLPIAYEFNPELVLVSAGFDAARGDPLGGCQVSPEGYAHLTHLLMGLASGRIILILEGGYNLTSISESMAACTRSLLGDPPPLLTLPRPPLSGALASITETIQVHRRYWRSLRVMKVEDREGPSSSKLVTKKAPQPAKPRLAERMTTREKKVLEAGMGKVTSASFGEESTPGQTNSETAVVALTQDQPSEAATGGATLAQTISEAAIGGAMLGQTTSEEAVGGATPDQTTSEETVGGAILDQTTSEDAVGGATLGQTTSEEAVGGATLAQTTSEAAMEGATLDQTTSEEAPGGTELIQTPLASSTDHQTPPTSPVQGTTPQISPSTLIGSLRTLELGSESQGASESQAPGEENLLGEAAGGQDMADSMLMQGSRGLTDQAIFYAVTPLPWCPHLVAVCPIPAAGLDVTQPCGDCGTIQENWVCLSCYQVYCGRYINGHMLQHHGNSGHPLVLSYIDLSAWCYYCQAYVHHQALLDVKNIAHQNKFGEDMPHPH

Human HDAC1 [3] = target: T3, Human HDAC1 (Homo sapiens, UniProt Q13547); set-up: method as in PMID 36528061; conditions: included for comparison; ref [22]; read-out: HDACs IC50, HDAC1; cited from earlier work
T3 construct: purchased BPS Bioscience 50051
T3 sequence (Q13547 whole entry): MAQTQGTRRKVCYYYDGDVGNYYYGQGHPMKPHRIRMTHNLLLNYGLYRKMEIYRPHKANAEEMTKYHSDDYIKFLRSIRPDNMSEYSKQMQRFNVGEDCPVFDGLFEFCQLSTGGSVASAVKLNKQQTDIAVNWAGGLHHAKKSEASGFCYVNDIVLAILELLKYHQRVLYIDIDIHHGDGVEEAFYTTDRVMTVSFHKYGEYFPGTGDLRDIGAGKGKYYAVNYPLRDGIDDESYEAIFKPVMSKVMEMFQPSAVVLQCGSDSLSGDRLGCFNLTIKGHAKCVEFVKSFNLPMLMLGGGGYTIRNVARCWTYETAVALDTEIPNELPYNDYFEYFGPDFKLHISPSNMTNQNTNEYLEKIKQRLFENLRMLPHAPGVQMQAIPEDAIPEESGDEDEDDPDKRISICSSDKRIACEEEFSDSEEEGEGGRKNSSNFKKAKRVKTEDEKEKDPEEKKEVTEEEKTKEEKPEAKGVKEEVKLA

zHDAC6-CD2 = target: T4, zHDAC6-CD2 (Danio rerio, UniProt F8W4B7); test: LC-MS time course of DFMO hydrolysis by zHDAC6-CD2; type: biochemical, zebrafish; conditions: absence of competitor
T4 construct: 8xHis-MBP (TEV-cleavable) (N, cleaved yes); made in house; host or cells: E. coli
T4 sequence (F8W4B7 440-798): T1 sequence (F8W4B7 440-798)
Procedure: In order to achieve a fast and sufficient conversion of DFMO to DFAcH before the addition of the competitor, and to minimize its effect on the first hydrolysis step, ITF3756 was added after a very short DFMO–enzyme pre-incubation (1 min). Subsequently, at each time point (Figure 4), an aliquot of the reaction mixture was mixed with acetonitrile to unfold the protein and quench the enzymatic activity. Each aliquot was analyzed by liquid LC-MS to determine the compound concentrations.
Experiments like those shown in panel A and C were carried out in the presence of 100 μM ITF3756, which was added after 1 min of ITF5924-enzyme (B) or ITF7209-enzyme (D) pre-incubation. All the experiments were carried out in triplicate. The lines simply join the average values of the experimental points. The incomplete recovery could be attributed to the relatively high enzyme concentration, possibly resulting in coprecipitation phenomena upon the addition of acetonitrile. […]
(§1) obtained in the absence of inhibitor. Such inhibition data were fitted in the GraphPad Prism software (version 10.2.2, La Jolla, CA, USA) using nonlinear regression analysis.
(§2) Eq. 1 P = v௦ ∙t + (vi − vs )[1 − exp(−kobs ∙t)] / kobs
(§3) In Eq. 1, P is the product concentration, expressed as fluorescence intensity, and t is the reaction time (in minutes) (7). For the determination of IC50 values, vo for fast-on inhibitors or vs for slow-on compounds were used to calculate the inhibition, as percentage with respect to the value obtained in the absence of inhibitor. Such inhibition data were fitted in GraphPad Prism software (version 10.2.2, La Jolla, CA, USA) using nonlinear regression analysis. […]
(§4) kobs values on inhibitor concentration was used to determine the mechanism of inhibition. “One-step” or a “two-step” (or “induced-fit) processes are the most common mechanisms of slow binding inhibition (Figure S2) and the resulting “kobs plots” should be linear for mechanism A and hyperbolic […]

human HDAC6 [4] = target: T2, human HDAC6; test: Fluorometric HDAC activity assay (Fluor de Lys Green), human full-length HDAC6; type: biochemical; conditions: for IC50: human full-length HDAC6, 25 °C, 3 µM Fluor de Lys Green, read-out: HDACs IC50, HDAC6
Procedure: (§5) Optimized fluorometric enzymatic assays were used as previously reported (5, 6). Briefly, the time-course of the reaction was monitored at 25 °C in HDAC assay buffer [25 mM Tris/HCl, pH 8.0, 130 mM NaCl, 0.05% Tween-20, 10% Glycerol, 1 mg/mL bovine serum albumin (BSA), 0.5 mM tris(2-carboxyethyl)phosphine (TCEP) and 1% DMSO]. Human HDAC1 (Catalog 50051, BPS Bioscience, San Diego, CA, USA), human HDAC6 (Catalog 50006, BPS Bioscience, San Diego, CA, USA) and the second catalytic domain of zebrafish HDAC6 (zHDAC6-CD2) were used at catalytic concentrations of 710 pM, 62.5-125 pM and 0.12 nM, respectively. The Fluor de Lys Green substrate (Enzo Life Sciences, Farmingdale, New York, USA) was included at a concentration close to the Km value, 3 µM for HDAC6 forms and 25 µM for HDAC1. For fast binding inhibitors, the initial velocity (vo) was calculated as (∆F/min) from the slope of the straight line fitting the data points. In the case […]
velocity (vi), the steady-state velocity at long reaction times (vs), and the apparent first-order rate constant (kobs). In Eq 1, P is the product concentration, expressed as fluorescence intensity and t is the reaction time (in minutes) (7). All progress curves are generated by using GraphPad Prism software (version 10.2.2, La Jolla, CA, USA). For IC50 determination, vo for fast-on inhibitors or vs for slow-on compounds were used to calculate the inhibition, as percentage with respect to the value […]
as §1, §2, §3, §4
to equation 2, assuming the validity of mechanism B, where Ki is the dissociation constant of the […]

[5] = target: T1, second catalytic domain of zebrafish HDAC6 (zHDAC6-CD2); test: Fluorometric HDAC activity assay (Fluor de Lys Green), zHDAC6-CD2; type: biochemical; conditions: for IC50: 25 °C, 3 µM Fluor de Lys Green, read-out: HDACs IC50, zHDAC6-CD2
Procedure: as §5
velocity (vi), the steady-state velocity at long reaction times (vs), and the apparent first-order rate constant (kobs). In Eq 1, P is the product concentration, expressed as fluorescence intensity and t is the reaction time (in minutes) (7). All progress curves are generated by using GraphPad Prism software (version 10.2.2, La Jolla, CA, USA). For IC50 determination, vo for fast-on inhibitors or vs for slow-on compounds were used to calculate the inhibition, as percentage with respect to the value
(1 picture or pasted object on this page, not shown here) […]
as §1, §2, §3, §4
to equation 2, assuming the validity of mechanism B, where Ki is the dissociation constant of the initial EI complex, whereas k2 and k-2 are the rate constants describing the formation of the tight EI* complex. IC50 reflects the dissociation constant of the EI* complex (Ki*). […]
Samples were kept frozen at -80 °C until the LC-HRMS analysis. The experiment was performed in […]
(ITF6715, ITF7738) and hydrazide (ITF6712, ITF7739) derivatives in the samples was performed with respect to calibration curves obtained with varying concentrations of each compound. Raw data were then imported into GraphPad Prism (version 10.2.2, La Jolla, CA, USA) to generate Figure 4.
The LC-HRMS analysis was carried out using a Vanquish Flex UHPLC (Thermo Fisher Scientific, Waltham, Massachusetts, USA) and a high-resolution mass spectrometer Orbitrap QExactive Focus (Thermo Fisher Scientific, Waltham, Massachusetts, USA), equipped with a Heated Electrospray Ionization, operated in positive mode. A Full Scan analysis was set in the m/z range 50-500 amu. A XSelect HSS T3 50x2.1 mm, 2.5 µm chromatographic column (Waters, Milford, Massachusetts, USA) was used. Mobile phase A consisted of 0.1% formic acid in water and mobile phase B in 0.1% formic acid in acetonitrile. The flow rate was set to 0.5 mL/min, with a gradient program from 3 to 20% B in 3 minutes. The software Chromeleon CDS (version 7.3.2, Thermo Fisher Scientific, Waltham, Massachusetts, USA) was used for acquisition, processing, and signal integration. […]

Human HDAC1 [6] = target: T3, Human HDAC1; test: Fluorometric HDAC activity assay (Fluor de Lys Green), human HDAC1; type: biochemical; conditions: 25 °C, 25 µM Fluor de Lys Green; read-out: HDACs IC50, HDAC1
Procedure: as §5
velocity (vi), the steady-state velocity at long reaction times (vs), and the apparent first-order rate constant (kobs). In Eq 1, P is the product concentration, expressed as fluorescence intensity and t is the reaction time (in minutes) (7). […]
In Eq. 1, P is the product concentration, expressed as fluorescence intensity, and t is the reaction time (in minutes) (7). […]

[7] = 5 µM DFMO, 5 µM zHDAC6-CD2, 25 °C

IC50 [5] [nM]	IC50 (human HDAC6 [4]) [nM]	IC50 (Human HDAC1 [6]) [nM]	SMILES	IC50 [1] [nM]	IC50 (human HDAC6 [2]) [nM]	IC50 (Human HDAC1 [3]) [nM]	also measured
			FC(F)c1nnc(-c2ccc(Cn3cc(-c4ccc(NC5=NCCN5)cc4)nn3)cc2)o1 [ITF5924]	7.8 ± 0.4	7.7 ± 0.3	> 100000	Time after which DFMO substantially disappeared (zHDAC6-CD2; [7]): 10 min
			NNC(=O)c1ccc(Cn2cc(-c3ccc(NC4=NCCN4)cc3)nn2)cc1 [ITF6712]		330	> 100000	Amount of hydrazide product detectable (zHDAC6-CD2; hydrolysis of 5 µM ITF5924 by 5 µM zHDAC6-CD2, 25 °C): 13%
			O=C(NNC(=O)C(F)F)c1ccc(Cn2cc(-c3ccc(NC4=NCCN4)cc3)nn2)cc1 [ITF6715]	2300	1600	> 100000	
72000	> 100000	> 100000	CC(C)(C)c1cn(Cc2ccc(C(=O)NNC(=O)C(F)F)s2)nn1 [ITF7738]				
1000	5100	> 100000	CC(C)(C)c1cn(Cc2ccc(C(=O)NN)s2)nn1 [ITF7739]				

SMILES	IC50 [5] [nM]	IC50 (human HDAC6 [4]) [nM]	IC50 (Human HDAC1 [6]) [nM]	IC50 [1] [nM]	IC50 (human HDAC6 [2]) [nM]	IC50 (Human HDAC1 [3]) [nM]	also measured
CC(C)(C)c1cn(Cc2ccc(-c3nnc(C(F)F)o3)s2)nn1 [ITF7209]	6.7 ± 0.4						k2 (rate constant, formation of the tight EI* complex) (human HDAC6 [4]; human HDAC6, fit of kobs to Eq. 2): 0.52 ± 0.01 min⁻¹; Mode of inhibition (human HDAC6 [4]; human full-length HDAC6, progress curves): slow binding inhibitor; Mode of inhibition ([5]; zHDAC6-CD2, progress curves): slow binding inhibitor; k2 (rate constant, formation of the tight EI* complex) ([5]; zHDAC6-CD2, fit of kobs to Eq. 2): 0.86 ± 0.02 min⁻¹; Ki ([5]; zHDAC6-CD2, fit of kobs to Eq. 2, induced-fit model, read-out: Ki (dissociation constant of the initial EI complex)): 980 ± 40 nM; Rate of DFMO consumption compared to ITF5924 (zHDAC6-CD2; [7]): slower rate of DFMO consumption
